Test results taken from patent publication US20260022142A1, “MACROCYCLIC IMMUNOMODULATORS” (Bristol-Myers Squibb Company, priority 2022, published 2026).
Bridge positions count the residues as written; N and C are the ends. Square brackets hold non-standard residues; d marks the D form. Peptide text beside a SMILES is read from it. * marks the point of attachment. Phe(4-COOH) = N[C@@H](Cc1ccc(C(=O)O)cc1)C(=O)O; Bip = N[C@@H](Cc1ccc(-c2ccccc2)cc1)C(=O)O; Phe(3-Me) = Cc1cccc(C[C@H](N)C(=O)O)c1; Aad = N[C@@H](CCCC(=O)O)C(=O)O; Cha = N[C@@H](CC1CCCCC1)C(=O)O; Pen = CC(C)(S)[C@H](N)C(=O)O; Phg = N[C@H](C(=O)O)c1ccccc1; Carboxymethyl = O=C(O)C*; Orn = NCCC[C@H](N)C(=O)O; Aun = NCCCCCCCCCCC(=O)O; Dab = NCC[C@H](N)C(=O)O; Dap = NC[C@H](N)C(=O)O

Biological target: T1, PD-1/PD-L1 interaction (PE-labeled human PD-L1-Ig binding to Jurkat cell line over-expressing human PD-1) (Homo sapiens, UniProt Q15116)
T1 construct: expressed in transfected cells; host or cells: Jurkat
Experiment: Jurkat-PD-1 Cell Binding High-Content Screening Assay (CBA)
Type: cell-based
Conditions: Jurkat cell line over-expressing human PD-1; PE-labeled PD-L1-Ig 20 nM final; read-out: Jurkat hPD1-PDL1 IC50
Method in brief: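 Read-out is high-content imaging of cell-bound phycoerythrin-tagged PD-L1-Ig on fixed, Hoechst-counterstained Jurkat cells that over-express human PD-1. Compound exposure lasts 2 h at 37° C before the labeled ligand (20 nM final) is added for a further hour.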

T1 sequence (Q15116 25-288): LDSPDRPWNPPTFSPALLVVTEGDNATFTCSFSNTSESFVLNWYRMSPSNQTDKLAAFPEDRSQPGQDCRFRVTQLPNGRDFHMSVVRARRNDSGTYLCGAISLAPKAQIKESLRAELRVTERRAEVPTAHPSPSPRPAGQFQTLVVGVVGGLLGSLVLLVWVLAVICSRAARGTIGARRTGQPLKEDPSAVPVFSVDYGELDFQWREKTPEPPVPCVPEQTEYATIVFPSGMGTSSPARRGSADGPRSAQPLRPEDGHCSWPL

| SMILES | IC50 [nM] |
| --- | --- |
| Cc1cccc(C[C@@H]2NC(=O)[C@H](CC(=O)O)NC(=O)[C@H](Cc3ccc(OCC(=O)O)cc3)NC(=O)[C@H](CN)NC(=O)CSC[C@@H](C(=O)N[C@@H](CCN)C(=O)NCCCCCCCCCCC(=O)O)NC(=O)[C@@H](CC(N)=O)NC(=O)[C@H](C(C)C)NC(=O)[C@H](CC3CCCCC3)NC(=O)[C@H](CCN)NC(=O)[C@@H](CC(C)C)NC(=O)[C@H](CCCN)NC(=O)[C@H](Cc3ccc(O)cc3)NC(=O)[C@H](Cc3ccc(-c4ccccc4)cc3)NC(=O)[C@H](C(C)C)NC2=O)c1 [Compound 2754] ({CH2CO}-[Dap]Y(Carboxymethyl)D[Phe(3-Me)]V[Bip]Y[Orn][dL][Dab][Cha]V[dN]C[Dab][Aun]-OH; thioether N-14) | 53.9 |
| Cc1cccc(C[C@@H]2NC(=O)[C@H](CC(=O)O)NC(=O)[C@H](Cc3ccc(OCC(=O)O)cc3)NC(=O)[C@H](CN)NC(=O)CSC[C@@H](C(=O)N[C@@H](CCN)C(=O)NCCCCCCCCCCC(=O)O)NC(=O)[C@@H](CC(N)=O)NC(=O)[C@H](C(C)C)NC(=O)[C@H](CC(C)C)NC(=O)[C@H](CCN)NC(=O)[C@@H](CC(C)C)NC(=O)[C@H](CCCN)NC(=O)[C@H](Cc3ccc(O)cc3)NC(=O)[C@H](Cc3ccc(-c4ccccc4)cc3)NC(=O)[C@H](C(C)C)NC2=O)c1 [Compound 2755] ({CH2CO}-[Dap]Y(Carboxymethyl)D[Phe(3-Me)]V[Bip]Y[Orn][dL][Dab]LV[dN]C[Dab][Aun]-OH; thioether N-14) | 30.5 |
| Cc1cccc(C[C@@H]2NC(=O)[C@H](CC(=O)O)NC(=O)[C@H](Cc3ccc(OCC(=O)O)cc3)NC(=O)[C@H](CN)NC(=O)CSC[C@@H](C(=O)N[C@@H](CCN)C(=O)NCCCCCCCCCCC(=O)O)NC(=O)[C@@H](CCC(=O)O)NC(=O)[C@H](C(C)C)NC(=O)[C@H](CC(C)C)NC(=O)[C@H](CCN)NC(=O)[C@@H](CC(C)C)NC(=O)[C@H](CCCN)NC(=O)[C@H](Cc3ccc(O)cc3)NC(=O)[C@H](Cc3ccc(-c4ccccc4)cc3)NC(=O)[C@H](C(C)C)NC2=O)c1 [Compound 2757] ({CH2CO}-[Dap]Y(Carboxymethyl)D[Phe(3-Me)]V[Bip]Y[Orn][dL][Dab]LV[dE]C[Dab][Aun]-OH; thioether N-14) | 177 |
| Cc1cccc(C[C@@H]2NC(=O)[C@H](CC(=O)O)NC(=O)[C@H](Cc3ccc(OCC(=O)O)cc3)NC(=O)[C@H](CN)NC(=O)CSC[C@@H](C(=O)N[C@@H](CCN)C(=O)NCCCCCCCCCCC(=O)O)NC(=O)[C@H](Cc3ccc(O)cc3)NC(=O)[C@H](C(C)C)NC(=O)[C@H](CC(C)C)NC(=O)[C@H](CCN)NC(=O)[C@@H](CC(C)C)NC(=O)[C@H](CCCN)NC(=O)[C@H](Cc3ccc(O)cc3)NC(=O)[C@H](Cc3ccc(-c4ccccc4)cc3)NC(=O)[C@H](C(C)C)NC2=O)c1 [Compound 2758] ({CH2CO}-[Dap]Y(Carboxymethyl)D[Phe(3-Me)]V[Bip]Y[Orn][dL][Dab]LVYC[Dab][Aun]-OH; thioether N-14) | 99.1 |
| Cc1cccc(C[C@@H]2NC(=O)[C@H](CC(=O)O)NC(=O)[C@H](Cc3ccc(OCC(=O)O)cc3)NC(=O)[C@H](CN)NC(=O)CSC[C@@H](C(=O)N[C@@H](CCN)C(=O)NCCCCCCCCCCC(=O)O)NC(=O)[C@H](Cc3ccc(OCC(=O)O)cc3)NC(=O)[C@H](C(C)C)NC(=O)[C@H](CC(C)C)NC(=O)[C@H](CCN)NC(=O)[C@@H](CC(C)C)NC(=O)[C@H](CCCN)NC(=O)[C@H](Cc3ccc(O)cc3)NC(=O)[C@H](Cc3ccc(-c4ccccc4)cc3)NC(=O)[C@H](C(C)C)NC2=O)c1 [Compound 2760] ({CH2CO}-[Dap]Y(Carboxymethyl)D[Phe(3-Me)]V[Bip]Y[Orn][dL][Dab]LVY(Carboxymethyl)C[Dab][Aun]-OH; thioether N-14) | 38.1 |
| Cc1cccc(C[C@@H]2NC(=O)[C@H](CC(=O)O)NC(=O)[C@H](Cc3ccc(OCC(=O)O)cc3)NC(=O)[C@H](CN)NC(=O)CSC[C@@H](C(=O)N[C@@H](CCN)C(=O)NCCCCCCCCCCC(=O)O)NC(=O)[C@H](c3ccccc3)NC(=O)[C@H](C(C)C)NC(=O)[C@H](CC3CCCCC3)NC(=O)[C@H](CCN)NC(=O)[C@@H](CC(C)C)NC(=O)[C@H](CCCN)NC(=O)[C@H](Cc3ccc(O)cc3)NC(=O)[C@H](Cc3ccc(-c4ccccc4)cc3)NC(=O)[C@H](C(C)C)NC2=O)c1 [Compound 2762] ({CH2CO}-[Dap]Y(Carboxymethyl)D[Phe(3-Me)]V[Bip]Y[Orn][dL][Dab][Cha]V[Phg]C[Dab][Aun]-OH; thioether N-14) | 197 |

The remaining compounds from weak to strong by IC50, led by results:

| IC50 [nM] | SMILES |
| --- | --- |
| 154 | Cc1cccc(C[C@@H]2NC(=O)[C@H](CC(=O)O)NC(=O)[C@H](Cc3ccc(OCC(=O)O)cc3)NC(=O)[C@H](CN)NC(=O)CSC[C@@H](C(=O)N[C@@H](CCN)C(=O)NCCCCCCCCCCC(=O)O)NC(=O)[C@H](c3ccccc3)NC(=O)[C@H](C(C)C)NC(=O)[C@H](CC(C)C)NC(=O)[C@H](CCN)NC(=O)[C@@H](CC(C)C)NC(=O)[C@H](CCCN)NC(=O)[C@H](Cc3ccc(O)cc3)NC(=O)[C@H](Cc3ccc(-c4ccccc4)cc3)NC(=O)[C@H](C(C)C)NC2=O)c1 [Compound 2761] ({CH2CO}-[Dap]Y(Carboxymethyl)D[Phe(3-Me)]V[Bip]Y[Orn][dL][Dab]LV[Phg]C[Dab][Aun]-OH; thioether N-14) |
| 147 | Cc1cccc(C[C@@H]2NC(=O)[C@H](CC(=O)O)NC(=O)[C@H](Cc3ccc(C(=O)O)cc3)NC(=O)[C@H](Cc3ccc(OCC(=O)O)cc3)NC(=O)CSC[C@@H](C(=O)N[C@@H](CCN)C(=O)NCCCCCCCCCCC(=O)O)NC(=O)[C@H]([C@@H](C)O)NC(=O)[C@H](C(C)C)NC(=O)[C@H](CC3CCCCC3)NC(=O)[C@H](CCN)NC(=O)[C@@H](CC(C)C)NC(=O)[C@H](CCCN)NC(=O)[C@H](Cc3ccc(O)cc3)NC(=O)[C@H](Cc3ccc(-c4ccccc4)cc3)NC(=O)[C@H](C(C)C)NC2=O)c1 [Compound 2748] ({CH2CO}-Y(Carboxymethyl)[Phe(4-COOH)]D[Phe(3-Me)]V[Bip]Y[Orn][dL][Dab][Cha]VTC[Dab][Aun]-OH; thioether N-14) |
| 113 | Cc1cccc(C[C@@H]2NC(=O)[C@H](CC(=O)O)NC(=O)[C@H](Cc3ccc(OCC(=O)O)cc3)NC(=O)[C@H](CN)NC(=O)CSC(C)(C)[C@@H](C(=O)N[C@@H](CCN)C(=O)NCCCCCCCCCCC(=O)O)NC(=O)[C@H]([C@@H](C)O)NC(=O)[C@H](C(C)C)NC(=O)[C@H](CC3CCCCC3)NC(=O)[C@H](CCN)NC(=O)[C@@H](CC(C)C)NC(=O)[C@H](CCCN)NC(=O)[C@H](Cc3ccc(O)cc3)NC(=O)[C@H](Cc3ccc(-c4ccccc4)cc3)NC(=O)[C@H](C(C)C)NC2=O)c1 [Compound 2753] ({CH2CO}-[Dap]Y(Carboxymethyl)D[Phe(3-Me)]V[Bip]Y[Orn][dL][Dab][Cha]VT[Pen][Dab][Aun]-OH; thioether N-14) |
| 71.1 | Cc1cccc(C[C@@H]2NC(=O)[C@H](CC(=O)O)NC(=O)[C@H](Cc3ccc(OCC(=O)O)cc3)NC(=O)[C@H](CN)NC(=O)CSC[C@@H](C(=O)N[C@@H](CCN)C(=O)NCCCCCCCCCCC(=O)O)NC(=O)[C@H](Cc3ccc(O)cc3)NC(=O)[C@H](C(C)C)NC(=O)[C@H](CC(C)C)NC(=O)[C@H](CCN)NC(=O)[C@@H](CC(C)C)NC(=O)[C@H](CCCN)NC(=O)[C@H](Cc3ccc(O)cc3)NC(=O)[C@H](Cc3ccc(-c4ccccc4)cc3)NC(=O)[C@H](CC(C)C)NC2=O)c1 [Compound 2759] ({CH2CO}-[Dap]Y(Carboxymethyl)D[Phe(3-Me)]L[Bip]Y[Orn][dL][Dab]LVYC[Dab][Aun]-OH; thioether N-14) |
| 40.7 | Cc1cccc(C[C@@H]2NC(=O)[C@H](CC(=O)O)NC(=O)[C@H](Cc3ccc(OCC(=O)O)cc3)NC(=O)[C@H](CN)NC(=O)CSC[C@@H](C(=O)N[C@@H](CCN)C(=O)NCCCCCCCCCCC(=O)O)NC(=O)[C@@H](CCC(=O)O)NC(=O)[C@H](C(C)C)NC(=O)[C@H](CC3CCCCC3)NC(=O)[C@H](CCN)NC(=O)[C@@H](CC(C)C)NC(=O)[C@H](CCCN)NC(=O)[C@H](Cc3ccc(O)cc3)NC(=O)[C@H](Cc3ccc(-c4ccccc4)cc3)NC(=O)[C@H](C(C)C)NC2=O)c1 [Compound 2756] ({CH2CO}-[Dap]Y(Carboxymethyl)D[Phe(3-Me)]V[Bip]Y[Orn][dL][Dab][Cha]V[dE]C[Dab][Aun]-OH; thioether N-14) |
| 12.5 | Cc1cccc(C[C@@H]2NC(=O)[C@H](CC(=O)O)NC(=O)[C@H](Cc3ccc(OCC(=O)O)cc3)NC(=O)[C@H](CN)NC(=O)CSC[C@@H](C(=O)N[C@@H](CCN)C(=O)NCCCCCCCCCCC(=O)O)NC(=O)[C@H](CCCC(N)=O)NC(=O)[C@H](C(C)C)NC(=O)[C@H](CC3CCCCC3)NC(=O)[C@H](CCN)NC(=O)[C@@H](CC(C)C)NC(=O)[C@H](CCCN)NC(=O)[C@H](Cc3ccc(O)cc3)NC(=O)[C@H](Cc3ccc(-c4ccccc4)cc3)NC(=O)[C@H](C(C)C)NC2=O)c1 [Compound 2751] ({CH2CO}-[Dap]Y(Carboxymethyl)D[Phe(3-Me)]V[Bip]Y[Orn][dL][Dab][Cha]V[Aad](NH2)C[Dab][Aun]-OH; thioether N-14) |
| 9.1 | Cc1cccc(C[C@@H]2NC(=O)[C@H](CC(=O)O)NC(=O)[C@H](Cc3ccc(OCC(=O)O)cc3)NC(=O)[C@H](CN)NC(=O)CSC[C@@H](C(=O)N[C@@H](CCN)C(=O)NCCCCCCCCCCC(=O)O)NC(=O)[C@H](CCCC(N)=O)NC(=O)[C@H](C(C)C)NC(=O)[C@H](CC3CCCCC3)NC(=O)[C@H](CCN)NC(=O)[C@@H](CC(C)C)NC(=O)[C@H](CCCN)NC(=O)[C@H](Cc3ccc(O)cc3)NC(=O)[C@H](Cc3ccc(-c4ccccc4)cc3)NC(=O)[C@H](Cc3ccc(O)cc3)NC2=O)c1 [Compound 2750] ({CH2CO}-[Dap]Y(Carboxymethyl)D[Phe(3-Me)]Y[Bip]Y[Orn][dL][Dab][Cha]V[Aad](NH2)C[Dab][Aun]-OH; thioether N-14) |
